Results reported in paper PMC3013012 (The Journal of Biological Chemistry, 2010).
Square brackets hold non-standard residues; d marks the D form. Peptide text beside a SMILES is read from it. Lys(Me3) = C[N+](C)(C)CCCC[C@H](N)C(=O)O; Lys(Me2) = CN(C)CCCC[C@H](N)C(=O)O

Key:
human Cbx7 chromodomain = target: T1, human Cbx7 chromodomain (Homo sapiens, UniProt O95931); experiment: Fluorescence polarization peptide binding
T1 sequence (O95931 8-62): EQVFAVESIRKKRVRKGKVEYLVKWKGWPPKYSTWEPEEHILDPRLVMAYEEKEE

human Cbx8 chromodomain = target: T2, human Cbx8 chromodomain (Homo sapiens, UniProt Q9HC52); experiment: Fluorescence polarization peptide binding
T2 sequence (Q9HC52 8-61): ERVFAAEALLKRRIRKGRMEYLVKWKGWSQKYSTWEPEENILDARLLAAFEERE

`CC[C@H](C)[C@H](NC(=O)CNC(=O)[C@@H](N)Cc1c[nH]cn1)C(=O)N[C@@H](C)C(=O)N[C@H](C(=O)N[C@@H](CCCC[N+](C)(C)C)C(=O)N[C@@H](CO)C(=O)N[C@H](C(=O)N[C@@H](CC(N)=O)C(=O)O)[C@@H](C)O)[C@@H](C)CC` [IAIK(1178)S] (H-HGIAI[Lys(Me3)]STN-OH) showed a Kd (human Cbx7 chromodomain) of 5 ± 0.8 µM.

With `CC[C@H](C)[C@H](NC(=O)CNC(=O)[C@H](Cc1c[nH]cn1)NC(=O)[C@@H](NC(=O)[C@H](CO)NC(=O)[C@H](CCCCN(C)C)NC(=O)[C@H](CC(C)C)NC(=O)[C@H](C)NC(=O)[C@H](Cc1ccccc1)NC(=O)CNC(=O)[C@H](CCCNC(=N)N)NC(=O)[C@@H](NC(=O)[C@H](CO)NC(=O)[C@H](CCCCN(C)C)NC(=O)[C@@H](NC(=O)[C@H](C)NC(=O)[C@@H](NC(=O)[C@H](CCC(N)=O)NC(=O)[C@@H](N)CCCNC(=N)N)C(C)C)C(C)C)[C@@H](C)O)[C@@H](C)O)C(=O)N[C@@H](C)C(=O)N[C@H](C(=O)N[C@@H](CCCCN(C)C)C(=O)N[C@@H](CO)C(=O)N[C@H](C(=O)N[C@@H](CC(N)=O)C(=O)O)[C@@H](C)O)[C@@H](C)CC` [Kme2(1162,1170,1178)] (H-RQVAV[Lys(Me2)]STRGFAL[Lys(Me2)]STHGIAI[Lys(Me2)]STN-OH) the Kd (human Cbx7 chromodomain) was 15 ± 0.5 µM and the Kd (human Cbx8 chromodomain) was 180 ± 80 µM.

`CC[C@H](C)[C@H](NC(=O)CNC(=O)[C@H](Cc1c[nH]cn1)NC(=O)[C@@H](NC(=O)[C@H](CO)NC(=O)[C@H](CCCC[N+](C)(C)C)NC(=O)[C@H](CC(C)C)NC(=O)[C@H](C)NC(=O)[C@H](Cc1ccccc1)NC(=O)CNC(=O)[C@H](CCCNC(=N)N)NC(=O)[C@@H](NC(=O)[C@H](CO)NC(=O)[C@H](CCCC[N+](C)(C)C)NC(=O)[C@@H](NC(=O)[C@H](C)NC(=O)[C@@H](NC(=O)[C@H](CCC(N)=O)NC(=O)[C@@H](N)CCCNC(=N)N)C(C)C)C(C)C)[C@@H](C)O)[C@@H](C)O)C(=O)N[C@@H](C)C(=O)N[C@H](C(=O)N[C@@H](CCCC[N+](C)(C)C)C(=O)N[C@@H](CO)C(=O)N[C@H](C(=O)N[C@@H](CC(N)=O)C(=O)O)[C@@H](C)O)[C@@H](C)CC` [Kme3(1162,1170,1178)] (H-RQVAV[Lys(Me3)]STRGFAL[Lys(Me3)]STHGIAI[Lys(Me3)]STN-OH) showed a Kd (human Cbx7 chromodomain) of 1.2 ± 0.2 µM and a Kd (human Cbx8 chromodomain) of 6 ± 2 µM.
